In patent publication US8975417B2, “Pyrazolopyrrolidine derivatives and their use in the treatment of disease” (Novartis AG, priority 2013, dated 2015):

How the values were obtained:
His-Brd2(60-472) = His-Brd2(60-472) (Homo sapiens (Human), UniProt P25440); experiment: TR-FRET in-vitro binding assay for BRD2; conditions: biochemical
How it was run: (§1)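 Bromodomain protein (45 nM in its addition solution) and tetra-acetylated histone H4 peptide (AcK5/8/12/16; 60 nM in its addition solution) were incubated with compounds for 35 min at 30 °C in 50 mM HEPES pH 7.5, 50 mM NaCl, 0.005% Tween20, 0.1% BSA. Eu-anti-His6 plus streptavidin-allophycocyanin detection followed, with TR-FRET read-out.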

[1] = target: His-CREBBP (1081-1197) bromodomain (Homo sapiens (Human), UniProt Q92793); experiment: AlphaScreen in-vitro binding assay for CREBBP; conditions: biochemical
How it was run: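 Ni-chelate acceptor and streptavidin donor beads (45 µg/mL each, in 50 mM HEPES pH 7.5, 150 mM NaCl, 0.02% BSA) were then added for 60 min at room temperature. IC50 came from 8-point non-linear regression.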

K-562 cells = experiment: Cell growth inhibition assay (CellTiter-Glo), K-562; assay type: cell-based, human; conditions: Homo sapiens, K562, read-out: K-562 TGI
Experimental: (§2) Cell Growth Inhibition Assay
(§3) The human leukemia cell lines MV-4-11, THP-1 and K-562 were employed to characterize the effect of BET inhibitors on cellular proliferation and viability. Cells were obtained from the American Type Culture Collection (ATCC) and cultured at 37° C. in a humidified 5% CO2 incubator in the following media: MV-4-11: DMEM high glucose (Animed #1-26F01-I), 10% FCS (Animed #2-01F26-I), 4 mM L-Glutamine (Animed #5-10K50), 1 mM Sodium Pyruvate (Animed # G03625P), 1× Penicillin-Streptomycin (Animed # F12478P); K-562: Iscove's MEM (Animed #1-28F16-I), 10% FCS (Animed #2-01F26-I), 4 mM L-Glutamine (Animed #5-10K50), 1× Penicillin-Streptomycin (Animed # F12478P); THP-1: RPMI-1640 (Animed #1-41F01-I), 10% FCS (Animed #2-01F26-I), 2 mM L-Glutamine (Animed #5-10K50), 10 mM HEPES (Animed #5-31F100), 1 mM Sodium Pyruvate (Animed # G03625P), 1× Penicillin-Streptomycin (Animed # F12478P). The AML lines MV-4-11 and THP-1 are very sensitive to BET inhibitors and show massive cell death upon BET inhibition (Zuber et al., Nature, 478 (2011), 524-8). Compound-mediated suppression of cell proliferation/viability was assessed by quantification of cellular ATP levels using the CellTiter-Glo (CTG) reagent (Promega). Briefly, cells were seeded in 20 μl fresh medium into 384-well plates, followed by addition of 5 μL medium containing compound dilutions at 5-fold their final intended concentration. Dose-response effects were assessed by 3-fold serial dilutions of the test compound, starting at 10 μM. Following incubation of the cells for days at 37° C. and 5% CO2, the effect of inhibitors on cell viability was quantified following addition of 20 μl CTG and luminescence quantification (integration time: 100 ms) as per vendor manual, using a correspondingly equipped Tecan M200 multi-mode platereader (TECAN, Switzerland). For data analysis, the assay background value determined in wells containing medium, but no cells, was subtracted from all data points. To enable differentiation of cytotoxic from cytostatic compounds, the number of viable cells is assessed relative to that observed at the time of compound addition using a separate cell plate (day 0). The effect of a particular test compound concentration on cell proliferation/viability is expressed as percentage of the background- and day 0-corrected luminescence reading obtained for cells treated with vehicle only (DMSO, 0.1% final concentration), which is set as 100%, whereas that luminescence reading for wells containing medium is set as −100%. Compound concentrations leading to half-maximal (IC50) and total growth inhibition (TGI) were determined using standard four parameter curve fitting.

THP-1 cells = experiment: Cell growth inhibition assay (CellTiter-Glo), THP-1; assay type: cell-based; conditions: Homo sapiens, read-out: THP-1 TGI
Experimental: as §2, §3

His-Brd3(20-477) = His-Brd3(20-477) (Homo sapiens (Human), UniProt Q15059); experiment: TR-FRET in-vitro binding assay for BRD3; conditions: biochemical
How it was run: as §1

MV-4-11 cells = experiment: Cell growth inhibition assay (CellTiter-Glo), MV-4-11; assay type: cell-based; conditions: Homo sapiens, MV4-11, read-out: MV-4-11 TGI
Experimental: as §2, §3

His-Brd4(44-477) = His-Brd4(44-477) (Homo sapiens (Human), UniProt O60885); experiment: TR-FRET in-vitro binding assay for BRD4; conditions: biochemical
How it was run: as §1

His-Brd3(20-477), sequence (Q15059 20-477): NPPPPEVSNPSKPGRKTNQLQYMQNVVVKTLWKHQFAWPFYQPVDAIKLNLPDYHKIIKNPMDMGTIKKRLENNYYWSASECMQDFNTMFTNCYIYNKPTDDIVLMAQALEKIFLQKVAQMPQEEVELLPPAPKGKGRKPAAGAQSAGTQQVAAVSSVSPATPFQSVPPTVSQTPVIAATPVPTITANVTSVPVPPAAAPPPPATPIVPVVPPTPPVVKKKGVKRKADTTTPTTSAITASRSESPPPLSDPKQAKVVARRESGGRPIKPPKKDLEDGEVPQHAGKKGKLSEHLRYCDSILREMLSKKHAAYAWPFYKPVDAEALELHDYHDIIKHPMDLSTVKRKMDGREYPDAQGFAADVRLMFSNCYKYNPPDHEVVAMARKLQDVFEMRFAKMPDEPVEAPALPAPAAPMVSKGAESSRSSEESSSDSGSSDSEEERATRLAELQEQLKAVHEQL
His-Brd2(60-472), sequence (P25440 60-472): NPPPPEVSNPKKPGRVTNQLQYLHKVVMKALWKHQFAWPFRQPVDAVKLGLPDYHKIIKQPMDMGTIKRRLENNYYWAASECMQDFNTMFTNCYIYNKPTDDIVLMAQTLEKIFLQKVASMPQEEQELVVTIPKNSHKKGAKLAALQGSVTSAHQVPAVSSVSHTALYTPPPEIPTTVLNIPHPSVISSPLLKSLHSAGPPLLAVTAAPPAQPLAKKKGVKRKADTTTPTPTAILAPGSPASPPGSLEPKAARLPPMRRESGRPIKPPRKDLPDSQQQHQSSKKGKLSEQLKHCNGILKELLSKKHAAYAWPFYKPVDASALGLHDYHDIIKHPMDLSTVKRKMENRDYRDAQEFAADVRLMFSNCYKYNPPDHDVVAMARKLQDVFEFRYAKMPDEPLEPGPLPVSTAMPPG
His-CREBBP (1081-1197) bromodomain, sequence (Q92793 1081-1197): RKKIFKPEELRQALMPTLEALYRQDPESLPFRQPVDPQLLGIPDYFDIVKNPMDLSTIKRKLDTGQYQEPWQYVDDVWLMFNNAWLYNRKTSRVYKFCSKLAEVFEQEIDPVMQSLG

| Compound | IC50 (His-Brd2(60-472)) | IC50 [1] | IC (total growth inhibition) (K-562 cells) | IC (total growth inhibition) (THP-1 cells) | IC50 (His-Brd3(20-477)) | IC (total growth inhibition) (MV-4-11 cells) | IC50 (His-Brd4(44-477)) |
| --- | --- | --- | --- | --- | --- | --- | --- |
| Cc1[nH]nc2c1C(c1ccc(Cl)cc1)N(c1cc(C)c(=O)n(C)c1)C2=O (stereo not shown) [Example 27, 4-(4-chlorophenyl)-5-(1,5-dimethyl-6-oxo-1,6-dihydropyridin-3-yl)-3-methyl-4,5-dihydropyrrolo[3,4-c]pyrazol-6(2H)-one] | 310 nM | 3800 nM | > 10 µM | 0.363 µM | 180 nM | 0.158 µM | 95 nM |
| Cn1cc(N2C(=O)c3c(cnn3C3CC3)C2c2ccc(Cl)cc2)cc(Cl)c1=O (stereo not shown) [Example 35, 5-(5-chloro-1-methyl-6-oxo-1,6-dihydropyridin-3-yl)-4-(4-chlorophenyl)-1-cyclopropyl-4,5-dihydropyrrolo[3,4-c]pyrazol-6(1H)-one] | 140 nM | 7400 nM | > 10 µM | 0.427 µM | 160 nM | 0.23 µM | 150 nM |
| Cc1cc(N2C(=O)c3c(cnn3C(C)C)C2c2ccc(Cl)cc2)cn(C)c1=O (stereo not shown) [Example 36, 4-(4-chlorophenyl)-5-(1,5-dimethyl-6-oxo-1,6-dihydropyridin-3-yl)-1-isopropyl-4,5-dihydropyrrolo[3,4-c]pyrazol-6(1H)-one] | 57 nM | 3600 nM | > 10 µM | 0.191 µM | 59 nM | 0.0927 µM | 66 nM |
| COc1ncc(-n2nc(C)c3c2C(=O)N(c2cc(Cl)c(=O)n(C)c2)C3c2ccc(Cl)cc2)c(OC)n1 (stereo not shown) [Example 53, 5-(5-chloro-1-methyl-6-oxo-1,6-dihydropyridin-3-yl)-4-(4-chlorophenyl)-1-(2,4-dimethoxypyrimidin-5-yl)-3-methyl-4,5-dihydropyrrolo[3,4-c]pyrazol-6(1H)-one] | 98 nM | – | > 10 µM | 0.685 µM | 120 nM | 0.372 µM | 130 nM |
| COc1ncc(-n2nc3c(c2C(C)C)[C@H](c2ccc(Cl)cc2)N(c2cc(C)c4onc(C)c4c2)C3=O)c(OC)n1 [Example 61, (S)-4-(4-chlorophenyl)-2-(2,4-dimethoxypyrimidin-5-yl)-5-(3,7-dimethylbenzo[d]isoxazol-5-yl)-3-isopropyl-4,5-dihydropyrrolo[3,4-c]pyrazol-6(2H)-one] | – | > 37000 nM | > 10 µM | > 10 µM | > 37000 nM | 1.09 µM | > 37000 nM |
| Cc1nn(C2CC2)c2c1C(c1ccc(Cl)cc1)N(c1cc(C)c3nnc(C)n3c1)C2=O (stereo not shown) [Example 92, 4-(4-chlorophenyl)-1-cyclopropyl-5-(3,8-dimethyl-[1,2,4]triazolo[4,3-a]pyridin-6-yl)-3-methyl-4,5-dihydropyrrolo[3,4-c]pyrazol-6(1H)-one] | – | 14900 nM | > 10 µM | 0.0395 µM | 27 nM | 0.0175 µM | – |
| Cc1nn(C2CC2)c2c1[C@@H](c1ccc(Cl)cc1)N(c1cc(C)c3nnc(C)n3c1)C2=O [Example 119, (R)-4-(4-chlorophenyl)-1-cyclopropyl-5-(3,8-dimethyl-[1,2,4]triazolo[4,3-a]pyridin-6-yl)-3-methyl-4,5-dihydropyrrolo[3,4-c]pyrazol-6(1H)-one] | – | 8900 nM | > 10 µM | 0.0226 µM | 17 nM | 0.0116 µM | – |
| Cc1cc(N2C(=O)c3c(c(CF)nn3C3CC3)C2c2ccc(Cl)cc2)cn2c(C)nnc12 (stereo not shown) [Example 159, 4-(4-chlorophenyl)-1-cyclopropyl-5-(3,8-dimethyl-[1,2,4]triazolo[4,3-a]pyridin-6-yl)-3-(fluoromethyl)-4,5-dihydropyrrolo[3,4-c]pyrazol-6(1H)-one] | – | 6600 nM | > 10 µM | 0.0855 µM | 50 nM | 0.0812 µM | 46 nM |
| Cc1nn(C2CC2)c2c1C(c1ccc(Cl)cc1)N(c1cn(C)c(=O)c3[nH]ccc13)C2=O (stereo not shown) [Example 160, 4-(4-(4-chlorophenyl)-1-cyclopropyl-3-methyl-6-oxopyrrolo[3,4-c]pyrazol-5(1H,4H,6H)-yl)-6-methyl-1H-pyrrolo[2,3-c]pyridin-7(6H)-one] | – | 4400 nM | > 10 µM | 0.107 µM | 52 nM | 0.102 µM | 30 nM |
| COCc1nn(C2CC2)c2c1[C@@H](c1ccc(Cl)cc1)N(c1cc(C)c3nnc(C)n3c1)C2=O [Example 163, […]] | – | 11000 nM | > 10 µM | 0.0461 µM | – | 0.022 µM | < 11 nM |
| Cc1cc(N2C(=O)c3c(c(C4CC4)nn3C)[C@H]2c2ccc(Cl)cc2)cn2c(C)nnc12 [Example 164, (R)-4-(4-chlorophenyl)-3-cyclopropyl-5-(3,8-dimethyl-[1,2,4]triazolo[4,3-a]pyridin-6-yl)-1-methyl-4,5-dihydropyrrolo[3,4-c]pyrazol-6(1H)-one] | – | 5100 nM | > 10 µM | 0.0173 µM | – | 0.0118 µM | – |
| COc1ccccc1-n1nc(C)c2c1C(=O)N(c1cc(C)c3nnc(C)n3c1)C2c1ccc(F)cc1F (stereo not shown) [Example 177, 4-(2,4-difluorophenyl)-5-(3,8-dimethyl-[1,2,4]triazolo[4,3-a]pyridin-6-yl)-1-(2-methoxyphenyl)-3-methyl-4,5-dihydropyrrolo[3,4-c]pyrazol-6(1H)-one] | – | 11000 nM | > 10 µM | 0.153 µM | 30 nM | 0.114 µM | 16 nM |
| Cc1n[nH]c2c1C(c1ccc(Cl)cc1F)N(c1cc(C)c3nnc(C)n3c1)C2=O (stereo not shown) [Example 183, 4-(4-chloro-2-fluorophenyl)-5-(3,8-dimethyl-[1,2,4]triazolo[4,3-a]pyridin-6-yl)-3-methyl-4,5-dihydropyrrolo[3,4-c]pyrazol-6(2H)-one] | – | > 24000 nM | > 10 µM | 0.314 µM | 75 nM | 0.126 µM | 82 nM |
| COc1ccccc1-n1nc(C)c2c1C(=O)N(c1cc(C)c3nnc(C)n3c1)C2c1ccc(Cl)cc1F (stereo not shown) [Example 187, 4-(4-chloro-2-fluorophenyl)-5-(3,8-dimethyl-[1,2,4]triazolo[4,3-a]pyridin-6-yl)-1-(2-methoxyphenyl)-3-methyl-4,5-dihydropyrrolo[3,4-c]pyrazol-6(1H)-one] | – | 33000 nM | > 10 µM | 0.223 µM | 42 nM | 0.209 µM | 27 nM |
